According to ChEMBL document CHEMBL1201862, “PubChem BioAssay data set” (2004):
Active and inactive are the calls of the source.

Columns and labels:
[1] = target: Mitochondrial peptide methionine sulfoxide reductase (Bos taurus, UniProt P54149); assay: Absorbance-based biochemical high throughput dose response assay for activators of Methionine sulfoxide reductase A (MsrA).; type: functional
[2] = target: Glucose-6-phosphate 1-dehydrogenase (Homo sapiens, UniProt P11413); assay: human G6PD enzyme inhibitors, dose response, selectivity assay for P. falciparum G6PD inhibitor project, biochemical, fluorescence (AID 504792); type: functional
[3] = target: T1, Rac GTPase-activating protein 1 (Homo sapiens, UniProt Q9H0H5); assay: MgcRacGAP GTPase-activating activity inhibitors, confirmation, biochemical, ADP Hunter fluorescence, primary and confirmatory (AID 624330); type: functional
T1 sequence (Q9H0H5 whole entry): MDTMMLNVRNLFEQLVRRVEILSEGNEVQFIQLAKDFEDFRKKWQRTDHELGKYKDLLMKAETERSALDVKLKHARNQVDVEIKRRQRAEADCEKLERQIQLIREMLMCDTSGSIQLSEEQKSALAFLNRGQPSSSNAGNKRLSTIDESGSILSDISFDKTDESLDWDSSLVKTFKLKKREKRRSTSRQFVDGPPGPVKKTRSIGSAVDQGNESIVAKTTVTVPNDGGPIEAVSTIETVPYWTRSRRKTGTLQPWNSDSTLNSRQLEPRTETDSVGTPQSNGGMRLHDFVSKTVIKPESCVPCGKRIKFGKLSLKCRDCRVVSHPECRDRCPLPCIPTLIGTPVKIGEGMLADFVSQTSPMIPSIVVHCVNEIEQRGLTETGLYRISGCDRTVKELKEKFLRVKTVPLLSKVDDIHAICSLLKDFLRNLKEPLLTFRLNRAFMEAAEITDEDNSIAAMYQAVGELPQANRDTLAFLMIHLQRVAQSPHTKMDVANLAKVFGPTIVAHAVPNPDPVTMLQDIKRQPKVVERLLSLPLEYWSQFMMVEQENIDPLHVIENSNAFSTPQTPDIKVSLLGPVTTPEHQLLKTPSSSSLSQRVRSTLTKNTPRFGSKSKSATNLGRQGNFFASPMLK

Hexokinase = Hexokinase (Trypanosoma brucei, UniProt Q38C41); assay: Confirmation assay for inhibitors of Trypanosoma brucei hexokinase 1-Analogue-first series. [Related pubchem assays (depositor defined):AID1430, AID1632, AID2516, AID2560, AID2579, AID2600, AID449725, AID492951]; type: functional
[4] = target: SWI/SNF-related matrix-associated actin-dependent regulator of chromatin subfamily A member 2 (Homo sapiens, UniProt P51531); assay: Luminescence-based cell-based high throughput dose response assay to identify activators of the function of SWI/SNF related, matrix associated, actin dependent regulator of chromatin, subfamily a, member 2 (SMARCA2, BRM).; type: functional
Beta Lactamase = Beta Lactamase (Pseudomonas aeruginosa, UniProt Q932Y6); assay: beta-lactamase reporter inhibitor potency, dose response, artefact control for NOD2-RIPK2 interaction inhibitor project, BLA reporter cells, FRET fluorescence (AID 651552); type: functional, cell-based
[5] = Fluorescence-based cell-based high throughput dose response assay for inhibitors of the interaction of nucleotide-binding oligomerization domain containing 2 (NOD2) and the receptor-interacting serine-threonine kinase 2 (RIPK2).; type: functional; settings: Homo sapiens
[6] = Counterscreen for activators of the function of SWI/SNF related, matrix associated, actin dependent regulator of chromatin, subfamily a, member 2 (SMARCA2, BRM): Luminescence-based cell-based high throughput dose response assay to identify non-selective compounds using the VP16 reporter assay.; type: functional
[7] = target: T2, Trace amine-associated receptor 1 (Homo sapiens, UniProt Q96RJ0); assay: Counterscreen for agonists of the human trace amine associated receptor 1 (hTAAR1): Fluorescence-based cell-based high throughput dose response assay to identify hTAAR1 agonist that also desensitize TAAR1 receptor response.; type: functional
T2 sequence (Q96RJ0 whole entry): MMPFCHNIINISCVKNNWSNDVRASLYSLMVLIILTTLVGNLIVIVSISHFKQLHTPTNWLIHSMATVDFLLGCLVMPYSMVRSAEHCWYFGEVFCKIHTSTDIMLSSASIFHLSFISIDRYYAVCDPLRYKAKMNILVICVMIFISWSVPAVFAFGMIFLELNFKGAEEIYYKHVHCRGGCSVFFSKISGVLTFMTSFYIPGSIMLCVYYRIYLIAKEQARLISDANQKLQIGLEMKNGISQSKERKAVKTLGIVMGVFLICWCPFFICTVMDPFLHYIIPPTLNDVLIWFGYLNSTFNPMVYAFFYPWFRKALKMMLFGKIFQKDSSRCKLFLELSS

cells [8] = type: functional, cell-based
cells [9] = type: functional, cell-based; remark: listed apart in the source
[10] = target: T2, Trace amine-associated receptor 1; assay: Fluorescence-based cell-based high throughput dose response assay to identify agonists of the human trace amine associated receptor 1 (TAAR1).; type: functional
Melanocortin receptor 4 = Melanocortin receptor 4 (Homo sapiens, UniProt P32245); type: functional, cell-based;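 further: Cell-based assay with luminescence read-out, confirmatory dose-response testing for agonist activity of biased ligands at MC4R; human U2OS cells with tagged receptor and beta-arrestin; potency of agonists that increase receptor coupling to beta-arrestin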
[11] = HEK293T cytotoxicity, dose response, cytotoxicity control for miR-122 modulator project, cell-based, activator set, cherry-pick (AID 720690); type: functional;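 further: HEK293T human cells scored for general mammalian cytotoxicity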
[12] = HEK293T cytotoxicity, dose response, cytotoxicity control for miR-122 modulator project, cell-based, inhibitor set, cherry-pick, set 2 (AID 720697); type: functional
[13] = miR-122 activators in hepatoma reporter cells, dose response, cell-based, Huh7 psiCHECK-miR122, Renilla luciferase, cherry-picked (AID 651956); type: functional;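 further: huh7 hepatoma cells stably carrying a psiCHECK-2 miR-122 sensor plasmid; renilla luciferase signal reporting endogenous miR-122 activity after 48 h compound exposure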
[14] = inhibitors of LMP1-driven NF-kB reporter, dose response, cell-based, EBV LMP1, luciferase, dry powder, set 2 (AID 624361); type: functional
[15] = LMP1-driven NF-kB reporter inhibition, dose response, cell-based, luciferase reporter, luminescence, dry powder, set 2 (AID 624376); type: functional
[16] = inhibitors of TNFa-stimulated NF-kB luciferase reporter, dose response, selectivity assay for EBV LMP1 NF-kB inhibitor project, HEK293 LMP1 reporter cells, dry powder, set 2 (AID 624369); type: functional
[17] = HEK293 cell viability, dose response, counter-screen for EBV LMP1 inhibitor project, dry powder, set 2 (AID 624374); type: functional
Vero = assay: Vero cell toxicity, dose response, cytotoxicity control, plate reader, cherry-pick samples (AID 687020); type: functional, cell-based; settings: Chlorocebus sabaeus
[18] = target: T3, Low molecular weight phosphotyrosine protein phosphatase (Homo sapiens, UniProt P24666); type: functional; settings: read-out: IC50_Mean
T3 sequence (P24666 whole entry): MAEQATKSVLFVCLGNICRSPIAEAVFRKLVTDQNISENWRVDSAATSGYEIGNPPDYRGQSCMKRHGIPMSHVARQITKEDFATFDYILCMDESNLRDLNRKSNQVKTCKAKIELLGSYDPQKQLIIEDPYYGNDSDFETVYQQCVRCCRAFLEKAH

[19] = target: T4, Carboxy-terminal domain RNA polymerase II polypeptide A small phosphatase 1 (Homo sapiens, UniProt Q9GZU7); assay: inhibitors of CTDSP1, concentration-response testing, biochemical assay, absorbance-based, actives from ultra-high-throughput screening (AID 540297); type: functional
T4 sequence (Q9GZU7 whole entry): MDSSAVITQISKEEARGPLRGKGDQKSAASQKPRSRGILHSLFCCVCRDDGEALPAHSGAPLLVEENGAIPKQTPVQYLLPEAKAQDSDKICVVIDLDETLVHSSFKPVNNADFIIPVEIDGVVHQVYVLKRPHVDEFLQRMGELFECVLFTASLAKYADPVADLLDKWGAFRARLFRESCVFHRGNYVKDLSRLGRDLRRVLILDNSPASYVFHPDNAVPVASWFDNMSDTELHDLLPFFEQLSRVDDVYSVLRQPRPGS

[20] = target: T3, Low molecular weight phosphotyrosine protein phosphatase; type: functional; settings: read-out: IC50_Mean; remark: listed apart in the source

Beta Lactamase, sequence (Q932Y6 whole entry, the tested form may be a part): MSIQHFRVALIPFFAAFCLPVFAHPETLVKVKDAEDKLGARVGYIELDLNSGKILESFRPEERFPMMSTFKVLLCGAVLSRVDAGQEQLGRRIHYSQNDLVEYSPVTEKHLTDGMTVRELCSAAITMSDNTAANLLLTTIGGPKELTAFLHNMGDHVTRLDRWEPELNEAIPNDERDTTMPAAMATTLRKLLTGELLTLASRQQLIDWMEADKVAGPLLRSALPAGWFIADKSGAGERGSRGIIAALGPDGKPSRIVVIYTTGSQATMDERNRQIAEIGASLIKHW
Mitochondrial peptide methionine sulfoxide reductase, sequence (P54149 whole entry): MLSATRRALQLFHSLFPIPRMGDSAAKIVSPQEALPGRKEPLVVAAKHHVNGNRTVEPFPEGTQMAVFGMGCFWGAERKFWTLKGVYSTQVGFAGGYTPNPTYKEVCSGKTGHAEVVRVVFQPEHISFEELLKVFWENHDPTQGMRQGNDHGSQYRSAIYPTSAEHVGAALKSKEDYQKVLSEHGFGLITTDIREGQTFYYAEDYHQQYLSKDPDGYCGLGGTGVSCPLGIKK
SWI/SNF-related matrix-associated actin-dependent regulator of chromatin subfamily A member 2, sequence (P51531 whole entry): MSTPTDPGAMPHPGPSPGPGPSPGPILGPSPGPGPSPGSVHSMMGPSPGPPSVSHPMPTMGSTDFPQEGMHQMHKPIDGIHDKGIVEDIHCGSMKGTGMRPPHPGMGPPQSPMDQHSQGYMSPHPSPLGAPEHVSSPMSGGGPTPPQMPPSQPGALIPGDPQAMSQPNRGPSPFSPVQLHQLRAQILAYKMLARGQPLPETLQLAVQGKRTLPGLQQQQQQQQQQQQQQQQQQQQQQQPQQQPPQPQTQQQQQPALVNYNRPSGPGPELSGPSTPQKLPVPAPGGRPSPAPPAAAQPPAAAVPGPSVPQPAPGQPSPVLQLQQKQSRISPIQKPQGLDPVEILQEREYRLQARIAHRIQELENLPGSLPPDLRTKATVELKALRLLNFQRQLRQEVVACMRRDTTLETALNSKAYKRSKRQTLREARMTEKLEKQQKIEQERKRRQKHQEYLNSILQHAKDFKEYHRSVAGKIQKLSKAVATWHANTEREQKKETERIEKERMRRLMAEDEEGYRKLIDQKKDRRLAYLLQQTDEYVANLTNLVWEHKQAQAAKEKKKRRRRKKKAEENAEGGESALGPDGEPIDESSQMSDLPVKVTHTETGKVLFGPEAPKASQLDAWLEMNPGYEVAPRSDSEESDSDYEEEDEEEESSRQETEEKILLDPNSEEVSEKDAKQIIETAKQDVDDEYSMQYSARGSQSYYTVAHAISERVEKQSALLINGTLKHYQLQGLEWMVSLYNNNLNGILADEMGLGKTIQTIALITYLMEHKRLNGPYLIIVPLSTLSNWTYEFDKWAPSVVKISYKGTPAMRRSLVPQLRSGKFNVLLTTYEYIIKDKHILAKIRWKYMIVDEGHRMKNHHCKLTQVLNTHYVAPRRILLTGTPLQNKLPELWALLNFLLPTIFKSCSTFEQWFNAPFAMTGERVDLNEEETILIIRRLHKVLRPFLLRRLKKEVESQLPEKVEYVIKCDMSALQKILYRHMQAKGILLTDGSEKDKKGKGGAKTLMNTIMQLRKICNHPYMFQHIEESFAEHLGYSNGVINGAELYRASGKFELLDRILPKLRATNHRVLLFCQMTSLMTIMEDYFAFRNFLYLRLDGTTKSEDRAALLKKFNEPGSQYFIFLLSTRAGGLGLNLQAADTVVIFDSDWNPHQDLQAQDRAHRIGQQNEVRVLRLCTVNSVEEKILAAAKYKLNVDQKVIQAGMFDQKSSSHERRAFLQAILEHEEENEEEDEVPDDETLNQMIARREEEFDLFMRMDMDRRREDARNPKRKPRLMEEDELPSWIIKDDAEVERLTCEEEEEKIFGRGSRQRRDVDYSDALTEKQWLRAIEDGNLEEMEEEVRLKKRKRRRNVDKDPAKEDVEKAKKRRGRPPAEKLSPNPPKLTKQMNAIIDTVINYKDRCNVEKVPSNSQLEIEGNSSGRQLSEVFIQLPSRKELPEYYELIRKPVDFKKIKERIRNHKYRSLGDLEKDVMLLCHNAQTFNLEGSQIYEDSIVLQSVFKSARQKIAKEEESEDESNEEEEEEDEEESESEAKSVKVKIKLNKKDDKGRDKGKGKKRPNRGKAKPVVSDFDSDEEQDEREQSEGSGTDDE
Hexokinase, sequence (Q38C41 whole entry): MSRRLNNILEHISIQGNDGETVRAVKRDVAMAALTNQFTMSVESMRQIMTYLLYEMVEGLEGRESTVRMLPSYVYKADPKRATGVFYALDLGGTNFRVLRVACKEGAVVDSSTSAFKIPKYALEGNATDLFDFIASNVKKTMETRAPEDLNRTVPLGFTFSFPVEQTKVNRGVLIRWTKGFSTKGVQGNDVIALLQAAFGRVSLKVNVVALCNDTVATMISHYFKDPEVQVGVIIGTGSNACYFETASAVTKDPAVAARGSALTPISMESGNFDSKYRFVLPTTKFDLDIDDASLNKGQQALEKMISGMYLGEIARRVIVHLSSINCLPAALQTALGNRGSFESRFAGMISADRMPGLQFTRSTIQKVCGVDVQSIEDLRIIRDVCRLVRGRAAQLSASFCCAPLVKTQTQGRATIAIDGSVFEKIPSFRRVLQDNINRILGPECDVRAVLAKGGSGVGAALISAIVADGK
Glucose-6-phosphate 1-dehydrogenase, sequence (P11413 whole entry): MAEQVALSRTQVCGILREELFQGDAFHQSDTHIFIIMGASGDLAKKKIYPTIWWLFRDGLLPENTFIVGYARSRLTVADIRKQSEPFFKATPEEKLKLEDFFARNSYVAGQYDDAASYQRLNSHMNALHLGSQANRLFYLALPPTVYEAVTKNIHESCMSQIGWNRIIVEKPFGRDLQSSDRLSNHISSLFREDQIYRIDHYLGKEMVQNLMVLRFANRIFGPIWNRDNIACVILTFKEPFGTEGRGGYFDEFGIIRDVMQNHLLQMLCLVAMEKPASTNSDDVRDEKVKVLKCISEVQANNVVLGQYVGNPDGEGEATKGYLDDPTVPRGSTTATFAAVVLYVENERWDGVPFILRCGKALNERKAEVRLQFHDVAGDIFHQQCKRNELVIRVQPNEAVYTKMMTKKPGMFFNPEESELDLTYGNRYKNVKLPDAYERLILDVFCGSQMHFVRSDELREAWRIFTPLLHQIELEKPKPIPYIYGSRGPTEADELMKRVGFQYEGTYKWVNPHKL
Melanocortin receptor 4, sequence (P32245 whole entry): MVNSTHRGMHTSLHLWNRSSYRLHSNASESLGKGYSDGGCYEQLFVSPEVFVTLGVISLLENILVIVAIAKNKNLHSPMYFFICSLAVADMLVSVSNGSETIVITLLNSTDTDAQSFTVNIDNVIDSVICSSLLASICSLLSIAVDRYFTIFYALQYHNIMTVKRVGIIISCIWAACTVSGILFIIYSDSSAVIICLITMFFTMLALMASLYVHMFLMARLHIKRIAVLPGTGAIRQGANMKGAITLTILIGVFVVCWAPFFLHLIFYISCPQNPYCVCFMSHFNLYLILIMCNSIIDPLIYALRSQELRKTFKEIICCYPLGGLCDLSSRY

SMILES: CC(=O)Nc1ccc2sn(-c3ccccc3)c(=O)c2c1
- EC50 [1]: > 104 µM (inactive)
- IC50 [2]: 12.1 µM (active)
- IC50 [3]: 53.3 µM (active)
- IC50 (Hexokinase): 6.31 µM (active)
- EC50 [4]: > 91.2 µM (inactive)
- IC50 (Beta Lactamase): 23.4 µM (inactive)
- IC50 [5]: 6.19 µM (active)
- EC50 [6]: > 91.2 µM (inactive)

SMILES: O=C(O)C1C2CCC(C2)C1C(=O)NCCc1cccc(Cl)c1 (centres undefined)
- IC50 [7]: > 29.9 µM (inactive)
- EC50 (cells [8]): > 29.9 µM (inactive)
- IC50 (cells [9]): > 29.9 µM (inactive)
- EC50 [10]: 2.58 µM (active)

SMILES: CC(=O)Nc1cc(-c2ccc(N(C)C)cc2)cn2c(-c3ccc(F)c(Cl)c3)cnc12
- EC50 (Melanocortin receptor 4): 3.99 µM (active)

SMILES: C[C@H](CO)N1C[C@H](C)[C@H](CN(C)C(=O)c2ccc3c(c2)OCO3)Oc2cc(C#Cc3ccccc3F)ccc2S1(=O)=O
- AC50 [11]: 20.8 µM (active)
- AC50 [12]: 23.7 µM (active)
- AC50 [13]: 36.6 µM (active)

SMILES: COc1cccc(C(=O)Nc2ccc3c(c2)C(=O)N(C)C[C@H](OC)[C@@H](C)CN(CCc2ccccc2)[C@@H](C)CO3)c1
- AbsAC35 [14]: 44.38 µM
- AbsAC35 [15]: 39.75 µM
- AbsAC35 [16]: 55.16 µM
- AbsAC35 [17]: 50.41 µM

SMILES: COc1ccc(NC(=O)N[C@H]2CC[C@@H](CCn3cc(C4(O)CCCC4)nn3)O[C@@H]2CO)cc1
- AC50 (Vero): 36.7 µM (active)

SMILES: O=C(N/N=C\c1ccc(OC(=O)c2cccs2)cc1)c1ccc(Cl)cc1
- IC50 [18]: 11.4 µM (active)
- IC50 [19]: 2.16 µM (active)
- IC50 [20]: 4.51 µM (active)
